Experimental data as given in patent publication US6461834B1, “Clostripain catalyzed amidation of peptides” (Bionebraska, Inc., priority 1998, dated 2002).

B1: papain: thiol protease which is not specific to arginyl bonds (protein, UniProt P00784 134-345, looked up)
Papain: IPEYVDWRQKGAVTPVKNQGSCGSCWAFSAVVTIEGIIKIRTGNLNEYSEQELLDCDRRSYGCNGGYPWSALQLVAQYGIHYRNTYPYEGVQRYCRSREKGPYAAKTDGVRQVQPYNEGALLYSIANQPVSVVLEAAGKDFQLYRGGIFVGPCGNKVDHAVAAVGYGPNYILIKNSWGTGWGENGYIRIKRGTGNSYGVCGLYTSSFYPVKN
B2: clostripain: extracellular thiol endoprotease from Clostridia, high specificity for Arg-Xaa peptide linkages (protein, UniProt P09870 51-181; P09870 191-526, looked up)
Clostripain light chain: NKNQKVTIMYYCDADNNLEGSLLNDIEEMKTGYKDSPNLNLIALVDRSPRYSSDEKVLGEDFSDTRLYKIEHNKANRLDGKNEFPEISTTSKYEANMGDPEVLKKFIDYCKSNYEADKYVLIMANHGGGAR
Clostripain heavy chain: AICWDDSNLDKNGEADCLYMGEISDHLTEKQSVDLLAFDACLMGTAEVAYQYRPGNGGFSADTLVASSPVVWGPGFKYDKIFDRIKAGGGTNNEDDLTLGGKEQNFDPATITNEQLGALFVEEQRDSTHANGRYDQHLSFYDLKKAESVKRAIDNLAVNLSNENKKSEIEKLRGSGIHTDLMHYFDEYSEGEWVEYPYFDVYDLCEKINKSENFSSKTKDLASNAMNKLNEMIVYSFGDPSNNFKEGKNGLSIFLPNGDKKYSTYYTSTKIPHWTMQSWYNSIDTVKYGLNPYGKLSWCKDGQDPEINKVGNWFELLDSWFDKTNDVTGGVNHYQW
B3: plasmin: proteolytic enzyme cleaving at the carboxyl peptide bond of arginine residues (protein, UniProt P00747 20-580; P00747 581-810, looked up)
Plasmin heavy chain A: EPLDDYVNTQGASLFSVTKKQLGAGSIEECAAKCEEDEEFTCRAFQYHSKEQQCVIMAENRKSSIIIRMRDVVLFEKKVYLSECKTGNGKNYRGTMSKTKNGITCQKWSSTSPHRPRFSPATHPSEGLEENYCRNPDNDPQGPWCYTTDPEKRYDYCDILECEEECMHCSGENYDGKISKTMSGLECQAWDSQSPHAHGYIPSKFPNKNLKKNYCRNPDRELRPWCFTTDPNKRWELCDIPRCTTPPPSSGPTYQCLKGTGENYRGNVAVTVSGHTCQHWSAQTPHTHNRTPENFPCKNLDENYCRNPDGKRAPWCHTTNSQVRWEYCKIPSCDSSPVSTEQLAPTAPPELTPVVQDCYHGDGQSYRGTSSTTTTGKKCQSWSSMTPHRHQKTPENYPNAGLTMNYCRNPDADKGPWCFTTDPSVRWEYCNLKKCSGTEASVVAPPPVVLLPDVETPSEEDCMFGNGKGYRGKRATTVTGTPCQDWAAQEPHRHSIFTPETNPRAGLEKNYCRNPDGDVGGPWCYTTNPRKLYDYCDVPQCAAPSFDCGKPQVEPKKCPGR
Plasmin light chain B: VVGGCVAHPHSWPWQVSLRTRFGMHFCGGTLISPEWVLTAAHCLEKSPRPSSYKVILGAHQEVNLEPHVQEIEVSRLFLEPTRKDIALLKLSSPAVITDKVIPACLPSPNYVVADRTECFITGWGETQGTFGAGLLKEAQLPVIENKVCNRYEFLNGRVQSTELCAGHLAGGTDSCQGDSGGPLVCFEKDKYILQGVTSWGLGCARPNKPGVYVRVSRFVTWIEGVMRNN
modifications: Plasmin
notes: proteolytic enzyme cleaving at the carboxyl peptide bond of arginine residues

What was measured:
clostripain [1] = target: T1, clostripain (Hathewaya histolytica, UniProt P09870); assay: Inhibition of clostripain amidation activity by organic solvent (GLP-1(7-36)Ala-Phe-Ala-Hse substrate, HPLC); format: biochemical; conditions: 2 M ammonium acetate, pH 10.4, 45° C., maximal attained amidation level
T1 construct: This protease is a heterodimer; purchased Worthington
Procedure: Maximal attained amidation level in the presence of various organic solvents was determined with GLP-1(7-36)Ala-Phe-Ala-Hse (SEQ ID NO:1; 2 mg/mL) in 2.5 mM DTT, 1 mM calcium chloride, 2 M ammonium acetate, pH 10.4, at 45° C., with 20 μg clostripain in a 1 mL reaction. Aliquots of the reaction mixture were removed at regular time intervals, quenched with acetic acid and assayed by HPLC analysis on a reverse phase HPLC column.

clostripain [2] = target: T1, clostripain; assay: Effect of organic solvent on clostripain proteolytic activity (N-Bz-Phe-Val-Arg-p-nitroanilide substrate, photometric initial rates); format: biochemical; conditions: varying amounts of organic solvent, otherwise as Table III
Procedure: A substrate solution (1 mL) of 2 mg N-Bz-Phe-Val-Arg-p-nitroanilide in 2.5 mM dithiothreitol, 1 mM calcium chloride, 50 mM Tricine buffer at pH 8.5 was incubated at room temperature with 10 μg of clostripain, in an aqueous solution containing 10% (v/v) of organic solvent. Initial rates were determined by photometric detection of the liberated […].
These reactions were repeated in the presence of varying amounts of organic solvent, and optimal concentrations for proteolytic activity were determined for propylene carbonate (10%), N,N-dimethylformamide (20%), trifluoroethanol (20%), and acetonitrile (20%).

[3] = test system: GLP-1(7-36)Ala-Phe-Ala-Hse; assay: Amidation by other Arg-specific proteases; format: biochemical; conditions: 1 M ammonium hydroxide, pH 10 and 8.5 (cathepsin B also pH 5.5), enzyme:substrate 1:50 to 1:100
Procedure: GLP-1(7-36)Ala-Phe-Ala-Hse (SEQ ID NO:1) (between 0.5 and 2 mg/mL) was dissolved in 1 M ammonium hydroxide at pH 10 and 8.5 and incubated individually with six different proteolytic enzymes, five of which have a specificity to cleave peptides at the carboxyl peptide bond of arginine residues, similar to that of clostripain. These included trypsin, thrombin, cathepsin B (also tested at pH 5.5), coagulation factor Xa, plasmin and papain. Papain is a thiol protease, albeit one which is not specific to arginyl bonds. […] Enzyme:substrate ratios were between 1:50 to 1:100 and protease specific additives were added where appropriate (e.g., calcium chloride).

[4] = format: physicochemical

Molecule | optimal concentration for proteolytic activity (clostripain [2]) [%] | production of GLP-1(7-36)NH2 (reversed phase chromatography) [3] | further results
CC1COC(=O)O1 (centres unmarked) [Propylene carbonate] | 10 | – | Extent of amidation (% of substrate converted) (clostripain [1]; 10% organic solvent): 29%
CN(C)C=O [Dimethylformamide, N,N-dimethylformamide] | 20 | – | –
CC#N [Acetonitrile] | 20 | – | Extent of amidation (% of substrate converted) (clostripain [1]; 20% organic solvent): 18%
trypsin | – | None of these proteases produced any GLP-1(7-36)NH2 | –
thrombin | – | None of these proteases produced any GLP-1(7-36)NH2 | –
His-Ala-Glu-Gly-Thr-Phe-Thr-Ser-Asp- Val-Ser-Ser-Tyr-Leu-Glu-Gly-Gln-Ala-Ala-Lys-Glu-Phe-Ile-Ala-Trp-Leu- Val-Lys-Gly-Arg-NH2 [GLP-1(7-36)NH2] | – | – | formation of D-contaminants ([4]; in water, pH about 4 to 8.4, −20° C. to 45° C., similar period of time): essentially no formation of D-contaminants; degradation ([4]; pH 9.4): 9%; degradation into D-contaminants ([4]; pH 10.5): a substantial amount of the peptide was degraded into D-contaminants
OCC(F)(F)F [Trifluoroethanol] | – | – | Extent of amidation (% of substrate converted) (clostripain [1]; 20% organic solvent): 9%
B1 | – | None of these proteases produced any GLP-1(7-36)NH2 | –
B2 | – | produced measureable GLP-1(7-36)NH2 | –
B3 | – | None of these proteases produced any GLP-1(7-36)NH2 | –
